Measurements as given in patent publication US8598158B2, “Fused tricyclic compounds for the treatment of inflammatory disorders” (Merck Sharp & Dohme Corp., priority 2009, dated 2013).
Like-named read-outs stand apart in the source and are kept apart here.

Target: MK2 kinase (Homo sapiens, UniProt P49137)
Assay: bMK2 IMAP assay
Experimental: 5× Reaction Buffer T (Molecular Device, R7364)
10 mM ATP (New England, P0756S)
Substrate: TAMRA labeled Glycogen.
5× Progressive Binding Buffer A (Molecular Device, R7279)
Progressive Binding Reagent (Molecular Device, R7281)
The final concentrations are: 1× inhibitor, 1% DMSO, 100 μM ATP, 50 pM MK2 and 100 nM substrate.
The reaction was stopped by adding 60 μl of 1:400 diluted Progressive Binding Reagent in 1× Progressive Binding Buffer A and incubating 30 min in the dark.
The degree of MK2 inhibition was calculated from the change in phosphorylated peptide generated in the presence of inhibitor compound added to each reaction followed by a 90 min reaction time. Basal MK2 activity was assessed in the absence of ATP which is required for enzymatic activity.

Chain of MK2 kinase (P49137 whole entry): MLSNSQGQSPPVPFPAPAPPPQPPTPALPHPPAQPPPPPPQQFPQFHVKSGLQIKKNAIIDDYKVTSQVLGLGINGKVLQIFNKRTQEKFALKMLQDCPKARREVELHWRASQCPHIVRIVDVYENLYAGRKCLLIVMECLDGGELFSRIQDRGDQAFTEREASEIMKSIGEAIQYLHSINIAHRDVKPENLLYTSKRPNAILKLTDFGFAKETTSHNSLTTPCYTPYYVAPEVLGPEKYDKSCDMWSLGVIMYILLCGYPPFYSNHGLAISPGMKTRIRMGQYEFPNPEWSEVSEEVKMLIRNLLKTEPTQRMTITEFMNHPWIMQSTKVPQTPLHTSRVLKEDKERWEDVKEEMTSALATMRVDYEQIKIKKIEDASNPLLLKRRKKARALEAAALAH

Structure (SMILES) | IC50 (IC50 Value, IMAP fluorescence polarization, 100 μM ATP, 50 pM MK2, 100 nM TAMRA peptide substrate) [nM] | IC50 (IC50 values, IMAP fluorescence polarization, 100 μM ATP, 50 pM MK2, 100 nM TAMRA peptide substrate) [nM] | IC50 [nM]
COCN1C(=O)c2oc(-c3ccc(C#N)cc3)cc2Cc2cc(N3CCNCC3)ccc21 [Compound 13] | – | – | 1 to 10
COc1ccncc1-c1ccccc1CN1C(=O)c2oc(-c3ccc(Cl)cc3)cc2Cc2cc(N3CCNCC3)ccc21 [Compound 21] | – | – | 10 to 100
O=C1Nc2ccc(N3CCNCC3)cc2Cc2cc(-c3ccc(Cl)cc3)sc21 [Compound 23] | – | – | 1000 to 10000
O=C1c2sc(-c3ccc(Cl)cc3)cc2Cc2cc(N3CCNCC3)ccc2N1Cc1ccccn1 [Compound 24] | – | – | 1000 to 10000
N#Cc1ccc(-c2cc3c(s2)C(=O)Nc2ccc(N4CCNCC4)cc2C3)cc1 [Compound 25] | – | – | 1000 to 10000
N#Cc1ccc(-c2cc3c(s2)C(=O)N(Cc2ccccn2)c2ccc(N4CCNCC4)cc2C3)cc1 [Compound 26] | – | – | 1000 to 10000
N#Cc1ccc(-c2cc3c(s2)C(=O)N(Cc2ccccc2-c2cncnc2)c2ccc(N4CCNCC4)cc2C3)cc1 [Compound 27] | – | – | 100 to 1000

Other lines, results leading:

IC50 (IC50 Value, IMAP fluorescence polarization, 100 μM ATP, 50 pM MK2, 100 nM TAMRA peptide substrate) [nM] | IC50 (IC50 values, IMAP fluorescence polarization, 100 μM ATP, 50 pM MK2, 100 nM TAMRA peptide substrate) [nM] | IC50 [nM] | Structure (SMILES)
10 to 100 | 38.3 | – | O=C1c2oc(-c3ccc(Cl)cc3)cc2Cc2cc(N3CCNCC3)ccc2N1Cc1ccccc1-c1cccnc1 [Compound 5]
– | – | 10 to 100 | CN1CCN(c2ccc3c(c2)Cc2cc(-c4ccc(Cl)cc4)oc2C(=O)N3Cc2ccccc2-c2cccnc2)CC1 [Compound 6]
– | – | 10 to 100 | Nc1ccc(-c2ccccc2CN2C(=O)c3oc(-c4ccc(Cl)cc4)cc3Cc3cc(N4CCNCC4)ccc32)cn1 [Compound 11]
– | – | 100 to 1000 | O=C1c2oc(-c3ccc(Cl)cc3)cc2Cc2cc(C3CCNCC3)ccc2N1Cc1ccccc1-c1ccccc1 [Compound 16]
– | – | 10 to 100 | COc1ccc(-c2ccccc2CN2C(=O)c3oc(-c4ccc(Cl)cc4)cc3Cc3cc(N4CCNCC4)ccc32)cn1 [Compound 17]
– | – | 100 to 1000 | O=C1Nc2ccc(C3CCNCC3)cc2Cc2cc(-c3ccccc3)oc21 [Compound 18]
– | – | 1000 to 10000 | O=C1c2oc(-c3ccccc3)cc2Cc2cc(C3CCNCC3)ccc2N1Cc1ccccc1-c1ccccc1 [Compound 20]
– | – | 10 to 100 | COc1ncc(-c2ccccc2CN2C(=O)c3oc(-c4ccc(Cl)cc4)cc3Cc3cc(N4CCNCC4)ccc32)cn1 [Compound 22]
